In US20140329863A1 (priority 2011, published 2014):
Converted amounts (≈) assume the structure as drawn. Where two headings read alike, the source gives them in different places.

Columns and labels:
PrP^C in T98G cells = format: cell-based, human
T98G cells = test: cells; format: cell-based, human; conditions: Homo sapiens, T98G, read-out: EC50 (μM) Calcein
[1] = Hepatic microsomal stability, mouse; conditions: mouse liver microsomes
[2] = Hepatic microsomal stability, human; conditions: human liver microsomes
[3] = tested on: PrP^Sc in dividing ScN2a-cl3 cells; format: cell-based, mouse; parameters: Dividing ELISA pEC50 (μM) 1st Expt. / Dividing ELISA pEC50 (μM) 2nd Expt. / Dividing ELISA pEC50 (μM) 3rd Expt. / Dividing ELISA pEC50 (μM) Mean: unit not given here
[4] = tested on: PrP^Sc in nondividing ScN2a-cl3 cells; format: cell-based, mouse; conditions: read-out: Non-Dividing ELISA EC50 (μM) Mean (n = 3); ScN2a-c13 non-dividing cells; mean n = 3
[5] = tested on: PrP^Sc in dividing ScN2a-c13 cells; conditions: dividing ScN2a-c13 cells; for EC50: read-out: EC50 (ELISA), reduction of PrP^Sc load
N2a-cl3 cells [6] = test: cells; conditions: Mus musculus, N2a-cl3, read-out: Dividing Calcein EC50 (μM) Mean (n = 3)
[7] = tested on: PrP^Sc in ScN2a-cl3 cells; format: cell-based, mouse; conditions: Western immunoblots
N2a-cl3 cells [8] = conditions: mouse
in vitro = conditions: mouse
[9] = pH 1.2, simulated gastric fluid
[10] = ScN2a-cl3 dividing cells, 1st determination
[11] = ScN2a-cl3 dividing cells, 2nd determination
[12] = ScN2a-cl3 dividing cells, 3rd determination
[13] = ScN2a-cl3 dividing cells, mean of three determinations
[14] = read-out: Dividing ELISA EC50 (μM) 1st Expt., ScN2a-cl3 dividing cells, 1st determination
[15] = read-out: Dividing ELISA EC50 (μM) 2nd Expt., ScN2a-cl3 dividing cells, 2nd determination
[16] = read-out: Dividing ELISA EC50 (μM) 3rd Expt., ScN2a-cl3 dividing cells, 3rd determination
[17] = read-out: Dividing ELISA EC50 (μM) Mean, ScN2a-cl3 dividing cells, mean of three determinations

Structure (SMILES): O=C(Cc1ccc(-c2ccccc2)cc1)NCc1ccccc1 [IND116065]
- Potency relative to the bromo analog (IND61769) (PrP^C in T98G cells): 10 times
- EC50 (PrP^C in T98G cells; read-out: EC50 (μM) ELISA): 0.267 µM
- EC50 (PrP^C in T98G cells; read-out: EC50 (μM) ELISA potency, PrP^C in T98G cells): 0.233 µM
- EC50 (T98G cells): > 10 µM
- Hepatic Extraction Ratio Mouse ([1]; predicted hepatic extraction): 0.83
- half-life at 1 μM ([1]; mouse, pH 7.4): 12.3 min
- Hepatic Extraction Ratio Human ([2]; predicted hepatic extraction): 0.86
- half-life at 1 μM ([2]; human, pH 7.4): 11.1 min

Structure (SMILES): Cc1cccc(Nc2nc(-c3ccc(-c4ccnc(N5CCN(C)CC5)c4)cc3)cs2)n1 [IND-0116134]
- solubility (physchem; [9]): 81.8 µM (≈ 36.2 µg/mL)
- solubility (physchem; pH 7.4, aqueous buffer): 40.2 µM (≈ 17.8 µg/mL)

Structure (SMILES): COc1ccc(-c2csc(Nc3cccnc3)n2)cc1OC [compound 7, [4-(3,4-dimethoxyphenyl)-thiazol-2-yl]pyridin-3-yl-amine]
- Dividing ELISA pEC50 (μM) 1st Expt. [3, 10]: 5.85
- Dividing ELISA pEC50 (μM) 2nd Expt. [3, 11]: 5.94
- Dividing ELISA pEC50 (μM) 3rd Expt. [3, 12]: 5.96
- Dividing ELISA pEC50 (μM) Mean [3, 13]: 5.92
- EC50 [3, 14]: 1.41 µM
- EC50 [3, 15]: 1.16 µM
- EC50 [3, 16]: 1.1 µM
- EC50 [3, 17]: 1.22 µM
- EC50 [4]: > 32 µM
- melting point: 251 to 254 °C
- EC50 [5]: 1220 nM
- EC50 (N2a-cl3 cells [6]): > 32 µM

Structure (SMILES): O=C(Cc1ccc(Br)cc1)NCc1ccccc1 [IND61769]
- EC50 (PrP^C in T98G cells; read-out: EC50 (μM) ELISA): 2.33 µM
- EC50 (T98G cells): > 10 µM

Structure (SMILES): Cc1cccc(Nc2nc(-c3ccc(-c4ccc(N(C)C)nc4)cc3)cs2)n1 [IND-0116044]
- solubility (physchem; [9]): 77.1 µM (≈ 29.9 µg/mL)
- solubility (physchem; pH 7.4, aqueous buffer): 14.3 µM (≈ 5.54 µg/mL)

Structure (SMILES): COc1ccc(-c2csc(Nc3cc4ccccc4cn3)n2)cc1 [compound 30, Isoquinolin-3-yl-[4-(4-methoxyphenyl)-thiazol-2-yl]-amine]
- Dividing ELISA pEC50 (μM) 1st Expt. [3, 10]: 6.65
- Dividing ELISA pEC50 (μM) 2nd Expt. [3, 11]: 6.41
- Dividing ELISA pEC50 (μM) 3rd Expt. [3, 12]: 6.38
- Dividing ELISA pEC50 (μM) Mean [3, 13]: 6.48
- EC50 [3, 14]: 0.226 µM
- EC50 [3, 15]: 0.385 µM
- EC50 [3, 16]: 0.414 µM
- EC50 [3, 17]: 0.342 µM
- EC50 [4]: > 32 µM
- melting point: 224 to 228 °C
- EC50 [5]: 340 nM
- EC50 (N2a-cl3 cells [6]): > 32 µM

Structure (SMILES): Cc1cccc(Nc2nc(-c3ccc(-c4ccc(OC(C)C)nc4)cc3)cs2)n1 [IND-0116091]
- solubility (physchem; [9]): 13.1 µM (≈ 5.27 µg/mL)
- solubility (physchem; pH 7.4, aqueous buffer): 3.2 µM (≈ 1.29 µg/mL)

Structure (SMILES): FC(F)(F)c1csc(Nc2cc3ccccc3cn2)n1 [compound 37, Isoquinolin-3-yl-(4-trifluoromethylthiazol-2-yl)-amine]
- Dividing ELISA pEC50 (μM) 1st Expt. [3, 10]: 5.05
- Dividing ELISA pEC50 (μM) 2nd Expt. [3, 11]: 5.14
- Dividing ELISA pEC50 (μM) 3rd Expt. [3, 12]: 5.01
- Dividing ELISA pEC50 (μM) Mean [3, 13]: 5.07
- EC50 [3, 14]: 9 µM
- EC50 [3, 15]: 7.26 µM
- EC50 [3, 16]: 9.71 µM
- EC50 [3, 17]: 8.66 µM
- EC50 [4]: > 32 µM
- melting point: 200 to 203 °C
- antiprion activity (in words) [5]: less potent
- EC50 (N2a-cl3 cells [6]): > 32 µM

Structure (SMILES): Cc1cccc(Nc2nc(-c3ccc(-c4cc[n+]([O-])cc4)cc3)cs2)n1 [IND-0116092]
- solubility (physchem; [9]): 17.6 µM (≈ 6.34 µg/mL)
- solubility (physchem; pH 7.4, aqueous buffer): 15.2 µM (≈ 5.48 µg/mL)

Structure (SMILES): CN(C)c1cc(-c2ccc(-c3csc(NC(=O)C4CC4)n3)cc2)ccn1 [IND- 116123]
- solubility (physchem; [9]): > 150 µM
- solubility (physchem; pH 7.4, aqueous buffer): < 0.5 µM

Structure (SMILES): Cc1csc(Nc2cc3ccccc3cn2)n1 [compound 36, Isoquinolin-3-yl-(4-methylthiazol-2-yl)-amine]
- Dividing ELISA pEC50 (μM) 1st Expt. [3, 10]: >4.5
- Dividing ELISA pEC50 (μM) 2nd Expt. [3, 11]: >4.5
- Dividing ELISA pEC50 (μM) 3rd Expt. [3, 12]: >4.5
- EC50 [3, 14]: > 32 µM
- EC50 [3, 15]: > 32 µM
- EC50 [3, 16]: > 32 µM
- EC50 [3, 17]: > 32 µM
- EC50 [4]: > 32 µM
- melting point: 212 to 215 °C
- antiprion activity (in words) [5]: inactive
- EC50 (N2a-cl3 cells [6]): > 32 µM

Structure (SMILES): COc1ccc(Nc2nc(-c3cc(-c4ccccc4)no3)cs2)nc1 [compound 40, (5-Methoxypyridin-2-yl)-[4-(3-phenylisoxazol-5-yl)-thiazol-2-yl]-amine]
- Dividing ELISA pEC50 (μM) 1st Expt. [3, 10]: 6.40
- Dividing ELISA pEC50 (μM) 2nd Expt. [3, 11]: 6.96
- Dividing ELISA pEC50 (μM) 3rd Expt. [3, 12]: 6.74
- Dividing ELISA pEC50 (μM) Mean [3, 13]: 6.70
- EC50 [3, 14]: 0.395 µM
- EC50 [3, 15]: 0.11 µM
- EC50 [3, 16]: 0.183 µM
- EC50 [3, 17]: 0.229 µM
- EC50 [4]: > 32 µM
- melting point: 203 to 205 °C
- EC50 [5]: 230 nM
- EC50 (N2a-cl3 cells [6]): > 32 µM

Structure (SMILES): COc1ccc(CC(=O)NCc2ccccc2)cc1 [IND6612]
- Potency relative to the bromo analog (IND61769) (PrP^C in T98G cells): equal potency to the bromo analog
- EC50 (PrP^C in T98G cells; read-out: EC50 (μM) ELISA): 3.36 µM
- EC50 (T98G cells): > 10 µM

Structure (SMILES): O=C(Cc1ccc(Cl)cc1)NCc1ccccc1 [IND126416]
- EC50 (PrP^C in T98G cells; read-out: EC50 (μM) ELISA): > 10 µM
- EC50 (PrP^C in T98G cells; read-out: EC50, PrP^C ELISA in T98G cells): > 10 µM
- EC50 (T98G cells): > 10 µM

Structure (SMILES): CC(=O)c1ccc(NC(=O)c2sc3nc4c(cc3c2N)CCCC4)cc1 [IND-0024609]
- EC50 ([3]; read-out: Antiprion activity EC50, thienopyridine analogs): > 10 µM
- antiprion activity (in words) [5]: inactive

Structure (SMILES): Cc1cccc(Nc2nc(-c3ccc(-c4ccc[n+]([O-])c4)cc3)cs2)n1 [IND-0116097]
- solubility (physchem; [9]): 49 µM (≈ 17.7 µg/mL)
- solubility (physchem; pH 7.4, aqueous buffer): 5.1 µM (≈ 1.84 µg/mL)

Structure (SMILES): COCCOc1ccc(-c2ccc(-c3csc(Nc4cccc(C)n4)n3)cc2)cn1 [IND-0116094]
- solubility (physchem; [9]): 62.8 µM (≈ 26.3 µg/mL)
- solubility (physchem; pH 7.4, aqueous buffer): 2.2 µM (≈ 0.921 µg/mL)

Structure (SMILES): FC(F)(F)Oc1ccc(-c2csc(Nc3cc4ccccc4cn3)n2)cc1 [compound 31, Isoquinolin-3-yl-[4-(4-trifluoromethoxyphenyl)-thiazol-2-yl]-amine]
- Dividing ELISA pEC50 (μM) 1st Expt. [3, 10]: >4.5
- Dividing ELISA pEC50 (μM) 2nd Expt. [3, 11]: >4.5
- Dividing ELISA pEC50 (μM) 3rd Expt. [3, 12]: >4.5
- EC50 [3, 14]: > 32 µM
- EC50 [3, 15]: > 32 µM
- EC50 [3, 16]: > 32 µM
- EC50 [3, 17]: > 32 µM
- EC50 [4]: > 32 µM
- melting point: 269 to 271 °C
- antiprion activity (in words) [5]: inactive
- EC50 (N2a-cl3 cells [6]): > 32 µM

Structure (SMILES): Cc1cccc(Nc2nc(-c3ccc(-c4ccc(N5CCN(C)CC5)nc4)cc3)cs2)n1 [IND-0116103]
- solubility (physchem; [9]): 37.1 µM (≈ 16.4 µg/mL)
- solubility (physchem; pH 7.4, aqueous buffer): 4.4 µM (≈ 1.95 µg/mL)

Structure (SMILES): O=C(Nc1nc(-c2ccc(-c3ccccc3)cc2)cs1)C1CC1 [IND-0030410]
- EC50 ([3]; read-out: EC50 (nM): ELISA, dividing ScN2a-cl3 cells): 0.317 µM
- EC50 ([3]; read-out: Potency (nM) ELISA (EC50), PrP^Sc ELISA, dividing ScN2a-cl3 cells): 0.317 µM
- EC50 ([7]; read-out: EC50 (nM): Western, ScN2a-cl3 cells): 194 nM
- EC50 ([7]; read-out: Potency (nM) Western (EC50), dividing ScN2a-cl3 cells): 194 nM
- EC50 (nM): Calcein (LC50 values from calcein assays) (N2a-cl3 cells [8]): MW: 320.4 EC50 (nM): ELISA: 317 Calcein: >10,000 Western: 194
- CC50 (in vitro): > 10000 nM
- solubility (physchem; [9]): 17.7 µM (≈ 5.67 µg/mL)
- solubility (physchem; pH 7.4, aqueous buffer): 12.7 µM (≈ 4.07 µg/mL)

Structure (SMILES): COCCOc1cccc(Nc2nc(-c3ccc(-c4ccccc4)cc3)cs2)n1 [IND-0116102]
- solubility (physchem; [9]): 2.1 µM (≈ 0.847 µg/mL)
- solubility (physchem; pH 7.4, aqueous buffer): 2.7 µM (≈ 1.09 µg/mL)
